# B1: MKRN1^H307E: MKRN1 mutant with mutated histidine residue in the RING finger domain (protein)
# chain: MAEAATPGTTATTSGAGAAAATAAAASPTPIPTVTAPSLGAGGGGGGSDGSGGGWTKQVTCRYFMHGVCKEGDNCRYSHDLSDSPYSVVCKYFQRGYCIYGDRCRYEHSKPLKQEEATATELTTKSSLAASSSLSSIVGPLVEMNTGEAESRNSNFATVGAGSEDWVNAIEFVPGQPYCGRTAPSCTEAPLQGSVTKEESEKEQTAVETKKQLCPYAAVGECRYGENCVYLHGDSCDMCGLQLLHPMDAAQRSQHIKSCIEAHEKDMELSFAVQRSKDMVCGICMEVVYEKANPSERRFGILSNCNETYCLKCIRKWRSAKQFESKIIKSCPECRITSNFVIPSEYWVEEKEEKQKLILKYKEAMSNKACRYFDEGRGSCPFGGNCFYKHAYPDAGREEPQRQKVGTSSRYRAQRRNHFWELIEERENSNPFDNDEEEVVTFELGEMLLMLLAAGGDDELTDSEDEWDLFHDELEDFYDLDL
# modifications: left off: small tags and cut ends
# How the values were obtained:
# hTERT [1] = assay: hTERT protein levels by immunoblotting in H1299 cells; assay type: cell-based, human
# Method: FIG. 1. hTERT is sensitive to the Hsp90 antagonist geldanamycin. (A) Down-regulation of ectopically expressed hTERT by GA. H1299 cells transfected with Flag-hTERT or Flag-TRF1 were treated with 0.1 μM GA for the indicated times. Lysates were resolved on 8% SDS-PAGE and analyzed by immunoblotting using an anti-Flag antibody probe. Cells were pretreated with 10 μM MG132 or E-64 for 2 hours, either alone or before treatment with GA. (B) Concentration dependence of GA on hTERT. H1299 cells transfected with Flag-hTERT or hTERT-HA were treated for 2 hours with the GA concentration indicated. The hTERT polypeptides were visualized with anti-Flag or anti-HA antibodies as marked by each blot. (C) Down-regulation of endogenous hTERT by GA. H1299 cells were treated with 0.1 μM GA for the indicated times, and cell lysates were analyzed by immunoprecipitation with anti-hTERT antibody followed by immunoblotting using same antibody probe. Cells were pretreated with 10 μM MG132 for 2 hours, either alone or before treatment with GA. Molecular weight markers are shown in kilodaltons. (D) H1299 cells were treated with 0.1 μM GA for the indicated times, and cell lysates were analyzed for telomerase activity by the TRAP assay. The lane labeled LB corresponds to the negative control (lysis buffer only). ITAS represents the internal telomerase assay standard. (E) Saos-2 cells transfected with Flag-hTERT or hTERT-HA or empty vector were untreated or treated with 0.1 μM GA for 16 hours, and cell lysates were analyzed for telomerase activity using the TRAP assay.
# (§1) FIG. 2. hTERT is ubiquitinated prior to proteasome-mediated degradation. (A) H1299 cells were co-transfected with Flag-hTERT and HA-ubiquitin. Cells were either untreated or treated for 2 hours with 10 μg/ml ALLnN or 0.1 μM GA, or a combination of the two as specified above each lane. Immunoprecipitation was performed with anti-Flag antibody before probing with anti-hTERT or anti-HA antibodies as indicated besides each blot. Molecular weight markers are shown in kilodaltons. (B) H1299 cells co-transfected with Flag-hTERT and HA-ubiquitin were treated for 1 hour with the GA concentration indicated in the presence of 10 μM MG132. Immunoprecipitation was performed with anti-Flag antibody followed by immunoblotting using an anti-HA antibody probe. (C) H1299 cells co-transfected with Flag-hTERT and HA-ubiquitin were either untreated or treated for 2 hours with 10 μg/ml ALLnN as specified above each lane. Proteins were immunoprecipated with anti-Flag antibody followed by immunoblotting using an anti-HA antibody probe.
# The human lung carcinoma cell line H1299 was cultured in RPMI-1640 medium, and the human fibrosarcoma cell line HT1080 was cultured in Dulbecco's modified Eagle's medium supplemented with 10% fetal bovine serum, 100 units/ml penicillin, and 100 μg/ml streptomycin in 5% CO2 at 37° C. The human osteosarcoma cell line Saos-2 was maintained in McCoy's 5A medium containing 15% fetal bovine serum, 100 units/ml penicillin, and 100 μg/ml streptomycin. To establish cell lines stably expressing MKRN1, the MKRN1-V5 construct was transfected into HT1080 cells using Lipofectamine Plus (Invitrogen, Carlsbad, Calif.) according to the manufacturer's instructions. As a control, HT1080 cells were also stably transfected with an empty vector. Multiple independent single clones were isolated and checked for protein expression by immunoblotting with anti-V5 antibody.
# H1299 cells were transiently transfected with the expression vectors indicated in the figure legends using TransFast transfection reagent (Promega, Madison, Wis.) according to the manufacturer's instructions. Cells were lysed with buffer containing 0.5% NP-40, 50 mM Tris-HCl (pH 7.5), 150 mM NaCl, 2 mM phenyl methylsulphonyl fluoride. […]
# hTERT [2] = assay: Ubiquitination of hTERT in H1299 cells (immunoprecipitation, anti-HA immunoblot); assay type: cell-based, human; details: H1299 Flag-hTERT and HA-ubiquitin, MG132
# Method: as §1
# (§2) FIG. 4. MKRN1 functions as an E3 ubiquitin-ligase for hTERT in vitro and in vivo. (A) HA-tagged hTERT (residues 946-1132) was incubated MKRN1 or mutants in the presence of E1, E2, His6-ubiquitin (6×His tag disclosed as SEQ ID NO: 7). Samples were resolved by 6% SDS-PAGE and analyzed by immunoblotting with an anti-HA antibody probe. (B) H1299 cells were co-transfected with Flag-hTERT, HA-ubiquitin, MKRN1-V5, and together with either MKRN1^H307E-V5 or MKRN1^Δ^C-V5 as specified. Cells were untreated or treated with 10 μM MG132 for 2 hours. Anti-Flag immunoprecipitates and cell lysates were analyzed by immunoblotting with anti-HA antibody and anti-V5 antibody probes, respectively. (C) H1299 cells co-transfected with Flag-hTERT and HA-ubiquitin, and together with or without MKRN1-V5 as indicated were treated with 10 μM MG132 for the indicated times. Anti-Flag immunoprecipitates and cell lysates were analyzed by immunoblotting with anti-HA antibody and anti-V5 antibody probes, respectively.
# H1299 cells were transiently transfected with the expression vectors indicated in the figure legends using TransFast transfection reagent (Promega, Madison, Wis.) according to the manufacturer's instructions. Cells were lysed with buffer containing 0.5% NP-40, 50 mM Tris-HCl (pH 7.5), 150 mM NaCl, 2 mM phenyl methylsulphonyl fluoride. After centrifugation at 12,000 rpm for 30 min, the supernatants were immunoprecipitated for 2 hours with anti-Flag (Sigma, St. Louis, Mo.) or anti-HA (Santa Cruz biotechnology, Santa Cruz, Calif.) antibodies and then incubated with Sepharose beads conjugated to Protein G (Amersham Biosciences Inc., Piscataway, N.J.). When ubiquitin conjugates of hTERT were detected, immunoprecipitation was performed with lysis buffer containing 0.1% SDS to dissociate its interacting proteins. Immunoblot analyses were performed using anti-hTERT (Santa Cruz biotechnology, Santa Cruz, Calif.), anti-V5 (Invitrogen, Carlsbad, Calif.), anti-HA, and anti-Flag antibodies.
# GA-mediated protein degradation by the proteasome depends on conjugation of ubiquitin to the Hsp90 client protein (Isaacs et al. 2002; Citri et al. 2002). To determine whether hTERT is ubiquitinated in vivo prior to its degradation, H1299 cells co-transfected with Flag-tagged hTERT and HA-tagged ubiquitin constructs were treated with GA, ALLnN (a general proteasome inhibitor) or both. The immunoprecipitated products were evaluated by immunoblotting with selected probes as described in FIG. 2. […]
# [3] = test system: hTERT (residues 946-1132); assay: In vitro ubiquitination assay; assay type: biochemical, human; details: purified components, E1, E2, His6-ubiquitin, 30° C., 60 min
# Method: as §2
# GST-hTERT-HA expressed in bacteria was used as substrate for in vitro ubiquitination assay (Park et al. 2004). The ubiquitination reactions were carried out in buffer (50 mM Tris-HCl, pH 7.5, 2 mM ATP, 2.5 mM MgCl2, 5 mM dithiothreitol, and 0.05% NP-40) containing yeast E1 (0.05 μg), E2 (0.2 μg), and His6-ubiquitin (0.8 μg) (6×His disclosed as SEQ ID NO: 7) in a final volume of 30 μl. […]
molecule,measurement,setting,value
"COC1=C2C[C@@H](C)C[C@H](OC)[C@H](O)[C@@H](C)/C=C(\C)[C@H](OC(N)=O)[C@@H](OC)/C=C\C=C(/C)C(=O)NC(=CC1=O)C2=O [GA, geldanamycin]",hTERT protein eliminated,"hTERT [1]; H1299 transfected with Flag-hTERT, 0.1 μM GA, within 2 hours",over 50%
CC(C)C[C@H](NC(=O)[C@H]1O[C@@H]1C(=O)O)C(=O)NCCCCN=C(N)N [E-64],effect on GA-induced down-regulation of hTERT,"hTERT [1]; H1299 Flag-hTERT, 10 μM pretreatment 2 hours, then GA 4 hours",had no effect
same,"hTERT expression levels, inhibitor alone","hTERT [1]; H1299 Flag-hTERT, 10 μM, absence of GA, relative to untreated controls",did not cause a significant change
B1,amount of ubiquitinated hTERT on co-expression,hTERT [2],significantly reduced
same,ubiquitination of C-terminal domain of hTERT,[3],not
